Columns and labels:
[1] = tested on: human normal fibroblasts; test: Effect on fibroblast proliferation (MTT); format: cell-based; settings: 10 μM dehydrogenated abietic acid, 24 hours, relative to group not treated with sample
Experimental: The effect of dehydrogenated abietic acid (purchased from Ramidus AB) of Formula 1 on wrinkle reduction was measured. In order to examine the effect of dehydrogenated abietic acid on skin cell proliferation that reduces wrinkles, human normal fibroblasts were seeded into a 96-well microplate at a density of 1×10^4 cells/well, and incubated in DMEM (Dulbecco's Modified Eagle's Medium) medium in a CO2 incubator at 36.5° C. for 24 hours. After incubation, in Example 1, the medium was replaced with a serum-free medium containing 10 μM of dehydrogenated abietic acid, and then the cells were further incubated for 24 hours. In Comparative Example 1, cells not treated with dehydrogenated abietic acid were used. Then, 10 μl of (3-(4,5-dimethyl-thiazol-2-yl)2,5-diphenyl tetrazolium (MTT, 5 mg/ml) was added to each well, which was then allowed to stand for 4 hours, followed by removal of the medium. Then, 100 μl of dimethyl sulfoxide solution was added to each well, and the absorbance at 570 nm was measured with a microplate reader. Based on the absorbance measured as described above, the cell proliferation effect was calculated using the following equation. The results of the calculation are shown in Table 1 below. Cell proliferation effect (%)=(absorbance of group treated with sample/absorbance of group not treated with sample)×100 Equation 1

[2] = tested on: human normal fibroblasts; test: Effect on stimulation of collagen biosynthesis (PICP kit); format: cell-based; settings: 10 μM dehydrogenated abietic acid, 48 hours, supernatant, 50 μg/ml ascorbic acid added
Experimental: The effect of dehydrogenated abietic acid (purchased from Ramidus AB) of Formula 1 on the stimulation of collagen biosynthesis was measured. In order to examine the effect of dehydrogenated abietic acid on the stimulation of collagen biosynthesis, human normal fibroblasts were seeded into a 96-well microplate at a density of 1×10^4 cells/well, and incubated in DMEM (Dulbecco's Modified Eagle's Medium) medium in a CO2 incubator at 36.5° C. for 24 hours. After incubation, in Example 2, the medium was replaced with a serum-free medium containing 10 μM of dehydrogenated abietic acid, and then the cells were further incubated for 48 hours. In Comparative Example 2, cells not treated with dehydrogenated abietic acid were used. At 24 hours before completion of the incubation, 50 μg/ml of ascorbic acid was added to each well to stimulate collagen synthesis. After completion, each well was washed, and the medium was replaced with serum-free DMEM medium, after which the cells were further incubated for 24 hours. After incubation, the supernatant of each well was collected, and the amount of procollagen type-I C-peptide (PICP) in the supernatant was measured using a kit (Takara, Kyoto, Japan) to determine the amount of newly synthesized collagen. The amount of PICP that is the amount of collagen synthesized is expressed in units of ng/2×10^4 cells in Table 2 below.

CC(C)c1ccc2c(c1)CC[C@H]1[C@](C)(C(=O)O)CCC[C@]21C [Example 1, dehydrogenated abietic acid]
Cell proliferation effect (%) [1]: 60.0% | Amount of collagen synthesized (procollagen type-I C-peptide, PICP) [2]: 220 ng/2 × 10^4

— patent publication US20150164754A1, “ANTI-AGEING COMPOSITION CONTAINING DEHYDROGENATED ABIETIC ACID AS ACTIVE INGREDIENT” (AMOREPACIFIC CORPORATION, priority 2012, published 2015)
